What was measured:
[1] = system: human Periferal blood mononuclear cells (PBMCs); assay: Ex vivo stimulation of IL-6 production (ELISA); type: cell-based; settings: 24 h; for ability to elicit IL-6 production (in words): 10 µM; for c (IL-6 production): 10 µM of each compound (MPLA 10 μM, LPS-RS 100 ng/mL), ELISA, dash = no IL-6 production found
Excerpt: Important factor in adjuvants development is wheter the compounds are capable to elicit immune response not only on reporter cells but on real immunocompetent cels. We have chosen ex vivo study on human Periferal blood mononuclear cells (PBMCs) to evaluate the ability to produce an interleukin 6 (IL-6). […] We have collected the blood samples from healthy donors. From those blood samples we had harvested PBMCs by standard protocol using Histopaque 1077 density gradient. PBMC specimens were frozen and kept in liquid nitrogen. The cells were incubated for 24 h with 10 µM (10% of lowest cytotoxic IC50—see the Section 2.5 and Section 2.6) of each compound and the ability to elicit IL-6 production was assessed. Synthetic MPLA (MPLAs) in equimolar concentration (10 μM) was used as a positive control and LPS from Rhodobacter sphaeroides 100 ng/mL (LPS-RS) as a negative control. IL-6 production was quantified by ELISA commercial kit (Sigma Aldrich) and results were interpreted by GraphPad Prism using Nonlinear Fit of RIA data function. […] Effect on other pro-inflamatory cytokines (e.g., IL-1) was not determined in this study and will be subject of ongoing study in order to explain discrepancy among in silico, in vitro and ex vivo findings. Furthermore study evaluating the influence of compounds on Th1/Th2/Th17 bias will be needed to thoroughly assess their adjuvant and immunomodulating potential. Nevertheless, despite such necesarry and laborious tasks novel TLR4 agonists and potential vaccine adjuvants have been found.
PBMCs was obtained by standard protocol using Histopaque 1077 gradient from whole blood of healthy donors. Cells were seeded at 25,000 cells per well and incubated for 24 h with final concentration 10 µM of each compound in triplicate (n = 3). After 24 h 100 µL of supernatant was collected from each well and level of IL-6 was determined by human IL-6 ELISA kit obtained from Sigma Aldrich (Darmstadt, Germany). Absorbance was measured at 450 nm wavelength on Synergy HT (BioTek). Level of IL-6 was calculated from standard curve using RIA nonlinear plot in Graph Pad Prism 6.

[2] = system: CHO-K1 (Chinese hamster ovary); assay: MTT cytotoxicity assay; type: cell-based; settings: Cricetulus griseus, CHO-K1 cells, 24 h exposure, mean of 2–3 independent measurements, read-out: IC50 and SEM
Description: The toxicity was estimated on the cell cultures in order to exclude the most toxic motifs from further development and to test whether the compounds might be used in the functional cell-model of TLR4. Standard MTT assay (Sigma Aldrich, Damrstadt, Germany) was applied according to the manufacturer’s protocol on the CHO-K1 (Chinese hamster ovary, ECACC, Salisbury, UK).
The IC50 values were calculated from the control-subtracted triplicates using non-linear regression (four parameters) of GraphPad Prism 5 software (GraphPad Software, La Jolla, CA, USA). Final IC50 and SEM value was obtained as a mean of 2–3 independent measurements (see Table 3).
Standard MTT assay (Sigma Aldrich, Darmstadt, Germany) was applied according to the manufacturer’s protocol on the CHO-K1 (Chinese hamster ovary, ECACC, Salisbury, UK) in order to compare the effect of different compound within the series. The cells were cultured according to ECACC recommended conditions and seeded in a density of 8000 per well. […] Cells were exposed to the tested compounds for 24 h. Then the medium was replaced by a medium containing 10 μM of MTT and cells were allowed to produce formazan for another approximately 3 h under surveillance. Thereafter, medium with MTT was sucked out and crystals of formazan were dissolved in DMSO (100 µL). Cell viability was assessed spectrophotometrically by the amount of formazan produced. Absorbance was measured at 570 nm with 650 nm reference wavelength on Synergy HT (BioTek, Winooski, VT, USA). IC50 was then calculated from the control—subtracted triplicates using non-linear regression (four parameters) of GraphPad Prism 5 software (GraphPad Software, La Jolla, CA, USA). Final IC50 and SEM value was obtained as a mean of 2–3 independent measurements.

[3] = target: T1, Recombinant hTRL4/MD2 complex (Homo sapiens, UniProt O00206+Q9Y6Y9); assay: Surface plasmon resonance direct binding (Biacore T200)
T1 construct: purchased R&D Systems
Description: To shed light on the prediction capabilities of vHTPS, direct binding of the best compound from the in vitro study (17) to the hTRL4/MD2 complex was investigated through Biospecific Interaction Analysis using the SPR-based biosensor Biacore T200 (GE Healthcare, Little Chalfont, UK).
Compound 17 was further analyzed using a series of concentrations from 6.25 up to 200 μM (binary dilution).
Surface plasmon resonance (SPR) experiments methodology was adapted from experiments by Svajger et al.. The experiments were performed using a Biacore T200 (GE Healthcare, Little Chalfont, UK) instrument equipped with a Series S—CM5 sensor chip (GE Healthcare). Dulbecco’s PBS supplied with 0.05% tween 20 and DMSO was used for immobilization of the protein. Recombinant human hTLR4/MD2 (R&D Systems, Minneapolis, MN, USA) was attached to the surface of the chip by amine coupling. The surface of flow cells 1 and 2 was initially activated with a 10-min pulse of a 1:1 mixture of 0.4 M 1-ethyl-3-(3-dimethylaminopropyl)-carbodiimide hydrochloride and 0.1 M N-hydroxysuccinimide, according to manufacturer recommendations. TLR4 was diluted into 10 mM sodium acetate buffer, pH 5.5, to a final concentration of 200 μg/mL, and injected twice for 600 s over the second flow cell. Both flow cells were blocked with a 10-min pulse of 1.0 M ethanolamine pH 8.5. The final capacity level was about 8000 RU. Analysis was performad in the running buffer consisting of Dulbecco’s PBS (10 mM Na2HPO4, 2 mM KH2PO4, 137 mM NaCl, 2 mM KCl, pH 7.4) supplemented with 1% DMSO (Sigma Aldrich, Darmstadt, Germany) and […]. All of the three hits from the cell-based assays were tested at two different concentrations: 20 μM and 200 μM. Each compound was injected for 1 min at a flow-rate of 30 μL/min, and the dissociation was monitored for 30 s. Regeneration was not needed, although 30 s of buffer-flow was used to stabilize the surface after each injection. […] We used the following concentrations for titration: 0, 6.25, 12.5, 25, 50, 100 and 200 μM.

[4] = target: T2, hTLR4/MD2 receptor (Homo sapiens, UniProt O00206+Q9Y6Y9); assay: In vitro hTLR4/MD2 activity assessment in HEK-Blue-hTLR4 reporter cells (SEAP); type: cell-based; settings: 10 µM, 16 h, relative to MPLA at same concentration, n = 3
T2 construct: host or cells: HEK-Blue-hTLR4 cells
Description: Aliquots of 20 µL of each compound was added into the well containing 25000 HEK-Blue™-hTLR4 cells (Invivogen, Toulouse, France) and the final concentration of compound in each well was 10 µM. Each concentration was evaluated in triplicate. Synthetic MPLAs (Invivogen) of the same concentration was used as positive control, apyrogenous saline F1 (BBraun, Prague, Czech Republic) was used as negative control. Plates were incubated overnight for 16 h at 37 °C 5% CO2. After the incubation 20 μL aliquots of supernatant were collected and mixed with 200 μL of SEAP detection media (QuantiBlue™, Invivogen) and incubated for 2 h at 37 °C 5% CO2. Absorbance of the solution was measured at 630 nm and activity of each compound expressed as a percentage of an activity of the MPLA of respective concentration was determined (n = 3).

[5] = Stability of the solid compounds (observation); type: physicochemical; settings: solid state

T1 sequence (O00206 24-631 limits assumed): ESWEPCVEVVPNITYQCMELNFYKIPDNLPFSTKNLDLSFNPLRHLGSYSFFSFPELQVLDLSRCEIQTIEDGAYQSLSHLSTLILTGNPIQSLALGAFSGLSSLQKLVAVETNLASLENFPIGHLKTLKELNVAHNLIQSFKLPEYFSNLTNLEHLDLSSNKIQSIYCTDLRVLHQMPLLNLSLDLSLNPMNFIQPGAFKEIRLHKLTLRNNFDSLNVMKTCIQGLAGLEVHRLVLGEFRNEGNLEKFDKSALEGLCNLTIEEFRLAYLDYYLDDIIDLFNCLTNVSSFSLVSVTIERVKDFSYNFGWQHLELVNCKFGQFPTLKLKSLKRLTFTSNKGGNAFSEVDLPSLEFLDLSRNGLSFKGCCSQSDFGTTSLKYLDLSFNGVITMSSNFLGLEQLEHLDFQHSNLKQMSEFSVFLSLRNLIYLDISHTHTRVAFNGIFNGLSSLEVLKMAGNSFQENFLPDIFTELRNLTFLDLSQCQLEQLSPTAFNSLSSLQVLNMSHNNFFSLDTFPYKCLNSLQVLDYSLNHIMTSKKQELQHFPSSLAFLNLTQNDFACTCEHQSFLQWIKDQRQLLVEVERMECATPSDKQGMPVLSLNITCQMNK
T1 sequence (Q9Y6Y9 17-160 limits assumed): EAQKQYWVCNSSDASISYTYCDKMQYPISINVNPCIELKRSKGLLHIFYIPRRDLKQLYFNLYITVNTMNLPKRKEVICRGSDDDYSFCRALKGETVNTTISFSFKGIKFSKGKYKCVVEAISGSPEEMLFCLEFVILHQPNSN
T2 sequence (O00206 24-839): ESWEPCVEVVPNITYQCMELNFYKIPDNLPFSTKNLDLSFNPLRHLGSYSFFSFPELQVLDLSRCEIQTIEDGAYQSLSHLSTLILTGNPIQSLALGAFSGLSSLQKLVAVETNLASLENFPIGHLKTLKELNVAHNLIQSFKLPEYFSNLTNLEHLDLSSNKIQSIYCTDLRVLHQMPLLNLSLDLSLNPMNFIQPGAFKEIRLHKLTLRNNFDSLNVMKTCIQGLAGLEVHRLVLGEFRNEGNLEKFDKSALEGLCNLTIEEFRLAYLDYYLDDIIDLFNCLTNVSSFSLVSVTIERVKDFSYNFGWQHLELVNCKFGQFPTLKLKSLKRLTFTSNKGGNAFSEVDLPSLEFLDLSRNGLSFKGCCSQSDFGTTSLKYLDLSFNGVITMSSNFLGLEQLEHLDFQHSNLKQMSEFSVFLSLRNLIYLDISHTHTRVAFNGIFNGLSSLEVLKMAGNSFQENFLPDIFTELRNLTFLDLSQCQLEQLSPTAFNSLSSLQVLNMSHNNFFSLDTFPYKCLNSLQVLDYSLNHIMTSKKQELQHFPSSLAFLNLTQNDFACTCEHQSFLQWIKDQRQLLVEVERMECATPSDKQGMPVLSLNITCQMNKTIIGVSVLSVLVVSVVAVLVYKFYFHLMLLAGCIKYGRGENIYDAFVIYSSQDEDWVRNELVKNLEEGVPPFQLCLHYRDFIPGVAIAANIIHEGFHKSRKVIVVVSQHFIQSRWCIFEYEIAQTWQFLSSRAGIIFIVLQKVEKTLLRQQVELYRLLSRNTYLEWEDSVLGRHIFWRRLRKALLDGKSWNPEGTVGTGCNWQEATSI
T2 sequence (Q9Y6Y9 17-160 limits assumed): as the sequence (Q9Y6Y9 17-160 limits assumed) above

Row | Molecule | melting point [°C] | IC50 [2] [µM] | other results
1 | O=C(NCCc1c[nH]c2ccccc12)c1ccccc1 [Compound 14, N-(2-(1H-Indol-3-yl)ethyl)benzamide] |  | 297 ± 17 | ability to elicit IL-6 production (in words) [1]: significantly induce production of IL-6; c (IL-6 production) [1]: 53.501 pg/mL
2 | Cc1ccc(C(=O)NCCc2c[nH]c3ccccc23)cc1 [Compound 15, N-(2-(1H-Indol-3-yl)ethyl)-4-methylbenzamide] |  | 197 ± 41 | 
3 | COc1ccc(C(=O)NCCc2c[nH]c3ccccc23)cc1 [Compound 16, N-(2-(1H-Indol-3-yl)ethyl)-4-methoxybenzamide] | 132.8 to 134.3 | 200 ± 7 | 
4 | O=C(NCCc1c[nH]c2ccccc12)c1ccc(Cl)cc1 [Compound 17, N-(2-(1H-Indol-3-yl)ethyl)-4-chlorobenzamide] |  | 201 ± 8 | ability to elicit IL-6 production (in words) [1]: did not shown any effect; dissociation (SPR, in words) ([3]; 6.25 up to 200 μM): rapid dissociation rates; Kd ([3]; SPR, immobilized hTRL4/MD2, 6.25 up to 200 μM): 0.747 µM; direct binding to the hTRL4/MD2 complex (SPR, in words) ([3]; immobilized recombinant hTRL4/MD2): direct binding to the hTRL4/MD2 complex was confirmed; activity of MPLA (hTLR4/MD2 agonist activity normalized to MPLA) [4]: more than 20%
5 | O=C(NCCc1c[nH]c2ccccc12)C1CCCCC1 [Compound 20, N-(2-(1H-Indol-3-yl)ethyl)cyclohexanecarboxamide] | 104.8 to 106.3 | 211 ± 43 | 
6 | O=C(NCCc1c[nH]c2ccccc12)c1cccc2ccccc12 [Compound 21, N-(2-(1H-Indol-3-yl)ethyl)-1-naphthamide] | 164.5 to 166.5 |  | 
7 | O=C(NCCc1c[nH]c2ccccc12)C1CCc2ccccc2C1 (stereo not drawn) [Compound 22, N-(2-(1H-Indol-3-yl)ethyl)-1,2,3,4-tetrahydronaphthalene-2-carboxamide] | 123.2 to 125.2 | 128 ± 8 | ability to elicit IL-6 production (in words) [1]: significantly induce production of IL-6; c (IL-6 production) [1]: 147.64 pg/mL; activity of MPLA (hTLR4/MD2 agonist activity normalized to MPLA) [4]: ~10%
8 | O=C(NCCc1c[nH]c2ccccc12)C1CCCCCC1 [Compound 24, N-(2-(1H-Indol-3-yl)ethyl)cycloheptanecarboxamide] | 88.4 to 90.4 | 170 ± 10 | stability of the compound (in words) [5]: unwanted degradations from crystals to amorphous state
9 | CC(C)CCC(=O)NCCc1c[nH]c2ccccc12 [Compound 25, N-(2-(1H-Indol-3-yl)ethyl)-4-methylpentanamide] | 45.1 to 47.1 | 348 ± 35 | stability of the compound (in words) [5]: unwanted degradations from crystals to amorphous state
10 | Monophosphoryl lipid A [MPLA, reference compound] |  |  | c (IL-6 production) [1]: 3078.97 pg/mL

The next lines start with results.

Row | melting point [°C] | Molecule | IC50 [2] [µM] | other results
11 | 112.4 to 113.9 | O=C(NCCc1c[nH]c2ccccc12)c1ccc(Cl)c(Cl)c1 [Compound 18, N-(2-(1H-Indol-3-yl)ethyl)-3,4-dichlorobenzamide] | 892 ± 122 | 
12 | 193.2 to 195 | O=C(NCCc1c[nH]c2ccccc12)c1ccc2ccccc2c1 [Compound 19, N-(2-(1H-Indol-3-yl)ethyl)-2-naphthamide] | 155 ± 12 | 
13 | 137 to 139 | O=C(NCCc1c[nH]c2ccccc12)c1ccc2c(c1)CCCC2 [Compound 23, N-(2-(1H-Indol-3-yl)ethyl)-5,6,7,8-tetrahydronaphthalene-2-carboxamide] | 98 ± 6 | 

— PMC6017214, “Rational Design of a New Class of Toll-Like Receptor 4 (TLR4) Tryptamine Related Agonists by Means of the Structure- and Ligand-Based Virtual Screening for Vaccine Adjuvant Discovery” (Molecules : A Journal of Synthetic Chemistry and Natural …, 2018)
